Results on five compounds are retold here after patent US8399489B2, “Antibacterial piperdine derivatives” (Astrazeneca AB, priority 2005, dated 2013).

What all share (format): cell-based
Assay [1] deals with Streptococcus pneumoniae. In words: Bacterial susceptibility testing in liquid media (MIC), Streptococcus pneumoniae. The settings on record: lowest concentration reducing growth by 80% or more, 37 degrees C., 24 hrs, read-out: MIC against Streptococcus pneumoniae. As for the experimental part: (§1) Compounds were tested for antimicrobial activity by susceptibility testing in liquid media. Compounds were dissolved in dimethylsulfoxide and tested in 10 doubling dilutions in the susceptibility assays. The organisms used in the assay were grown overnight on suitable agar media and then suspended in a liquid medium appropriate for the growth of the organism. The suspension was a 0.5 McFarland and a further 1 in 10 dilution was made into the same liquid medium to prepare the final organism suspension in 100 μL. Plates were incubated under appropriate conditions at 37 degrees C. for 24 hrs prior to reading. The Minimum Inhibitory Concentration was determined as the lowest drug concentration able to reduce growth by 80% or more.

For assay [2], the system named is EFM073. In words: Bacterial susceptibility testing in liquid media (MIC), EFM073. The settings on record: strain EFM073; lowest concentration reducing growth by 80% or more; 37 degrees C., 24 hrs. As for the experimental part: as §1
Assay [3] has as its system SPN548. In words: Bacterial susceptibility testing in liquid media (MIC), SPN548. The note with it: strain SPN548; lowest concentration reducing growth by 80% or more; 37 degrees C., 24 hrs. The protocol: as §1
In assay [4] the test system is SAU516. The assay is described as follows: Bacterial susceptibility testing in liquid media (MIC), SAU516. The note with it: strain SAU516; lowest concentration reducing growth by 80% or more; 37 degrees C., 24 hrs. As for the experimental part: as §1
For assay [5], the system named is HIN446. The assay is described as follows: Bacterial susceptibility testing in liquid media (MIC), HIN446. The settings on record: strain HIN446; lowest concentration reducing growth by 80% or more; 37 degrees C., 24 hrs. As for the experimental part:
as §1

For assay [6], the system named is MCA445. The assay is described as follows: Bacterial susceptibility testing in liquid media (MIC), MCA445. The settings on record: strain MCA445; lowest concentration reducing growth by 80% or more; 37 degrees C., 24 hrs. The protocol:
as §1

Molecules are shown by their SMILES. In brackets after ≈: the same amount, converted by molar mass.

Turning to `CO[C@@H]1CN(c2cc(C(=O)O)nc(Cl)n2)CC[C@@H]1NC(=O)c1[nH]c(C)c(Cl)c1Cl` (racemic) [Example 48, Cis(±)2-Chloro-6-(4-{[(3,4-dichloro-5-methyl-1H-pyrrol-2-yl)carbonyl]amino}-3-methoxypiperidin-1-yl)pyrimidine-4-carboxylic acid], the MIC in assay [1] amounted to 0.13 µg/mL (≈ 0.281 µM).

Regarding `CO[C@@H]1CN(c2cc(C(=O)O)nc3ccccc23)CC[C@@H]1NC(=O)c1cc(Cl)c(C)[nH]1` (racemic) [Example 60, Cis(±)4-(4-{[(4-chloro-5-methyl-1H-pyrrol-2-yl)carbonyl]amino}-3-methoxypiperidin-1-yl)quinoline-2-carboxylic acid], the MIC EFM073 in assay [2] was determined as 8 µg/mL (≈ 18.1 µM). In assay [3], this compound came in with an MIC SPN548 of 2 µg/mL (≈ 4.52 µM). The same compound registered an MIC SAU516 in assay [4] of 2 µg/mL (≈ 4.52 µM). In addition, the MIC HIN446 in assay [5] is 4 µg/mL (≈ 9.03 µM). In addition, in assay [6], the MIC MCA445 was found to be 0.25 µg/mL (≈ 0.564 µM).

Compound `CO[C@@H]1CN(c2cc(C(=O)O)ncc2Cl)CC[C@@H]1NC(=O)c1[nH]c(C)c(Cl)c1Cl` (racemic) [Example 315, Cis(±)-5-chloro-4-(4-{[(3,4-dichloro-5-methyl-1H-pyrrol-2-yl)carbonyl]amino}-3-methoxypiperidin-1-yl)pyridine-2-carboxylic acid] gave an MIC EFM073 in assay [2] of 4 µg/mL (≈ 8.66 µM). Besides, the MIC SPN548 in assay [3] came out at 0.5 µg/mL (≈ 1.08 µM). In assay [4], this compound gave an MIC SAU516 of 4 µg/mL (≈ 8.66 µM). The MIC HIN446 in assay [5] came out at 2 µg/mL (≈ 4.33 µM). For the same compound, the MIC MCA445 in assay [6] was 0.13 µg/mL (≈ 0.282 µM).

On to `CO[C@H]1CN(c2nc3cccc(C(=O)O)c3s2)CC[C@H]1NC(=O)c1[nH]c(C)c(Cl)c1Cl` [Example 294], for which, in assay [2], the MIC EFM073 came to 0.016 µg/mL (≈ 0.0331 µM). Also, the MIC SPN548 in assay [3] was found to be 0.0039 µg/mL (≈ 0.00807 µM). In assay [4], this compound showed an MIC SAU516 of 0.031 µg/mL (≈ 0.0641 µM). The compound further showed an MIC HIN446 in assay [5] of 0.031 µg/mL (≈ 0.0641 µM). In addition, the MIC MCA445 in assay [6] stood at 0.001 µg/mL (≈ 0.00207 µM).

As to `Cc1[nH]c(C(=O)N[C@@H]2CCN(c3cc(C(=O)O)ccn3)C[C@@H]2F)c(Cl)c1Cl` [Example 345, 2-((3S,4R)-4-{[(3,4-dichloro-5-methyl-1H-pyrrol-2-yl)carbonyl]amino}-3-fluoropiperidin-1-yl)isonicotinic acid], in assay [2], the MIC EFM073 is 0.13 µg/mL (≈ 0.313 µM). For the same compound, the MIC SPN548 in assay [3] was determined as 0.03 µg/mL (≈ 0.0722 µM). In assay [4], this compound gave an MIC SAU516 of 0.5 µg/mL (≈ 1.2 µM). This compound also gave an MIC HIN446 in assay [5] of 0.25 µg/mL (≈ 0.602 µM). This compound gave an MIC MCA445 in assay [6] of 0.031 µg/mL (≈ 0.0747 µM).
